Measurements taken from PubChem BioAssay AID248 (DTP/NCI, 2004).
Where “and” joins values, the source holds several entries; their conditions need not be identical. Equal entries are not always repeated. Inconclusive results and toxic doses are left out. Cut-off read from the data, not from the text of the source: active = T/C of 150% or more; inactive = T/C below 125%.

Test system: L1210 leukemia ip in BDF1 mice, survival T/C
Test: NCI In Vivo Anticancer Drug Screen. Data for tumor model L1210 Leukemia (intraperitoneal) in B6D2F1 (BDF1) mice
Conditions: endpoint: mean survival time, higher = longer survival
Procedure, shortened: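 Transplanted-tumor mice were given test agent; controls received vehicle only. Survival readings from the two groups were divided (treated over control).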

[1] = dose: 100.0 mg/kg/injection, schedule: Q04DX003 (ip), vehicle: saline with Tween-80
[2] = dose: 200.0 mg/kg/injection, schedule: Q04DX003 (ip), vehicle: saline with Tween-80
[3] = dose: 100.0 mg/kg/injection, schedule: Q01DX001 (ip), vehicle: other
[4] = dose: 200.0 mg/kg/injection, schedule: Q01DX001 (ip), vehicle: other
[5] = dose: 100.0 mg/kg/injection, schedule: Q01DX009 (ip), vehicle: saline with Tween-80
[6] = dose: 200.0 mg/kg/injection, schedule: Q01DX009 (ip), vehicle: saline with Tween-80
[7] = dose: 100.0 mg/kg/injection, schedule: Q01DX009 (ip), vehicle: Klucel (hydroxypropylcellulose) (HPC)
[8] = dose: 200.0 mg/kg/injection, schedule: Q01DX009 (ip), vehicle: Klucel (hydroxypropylcellulose) (HPC)
[9] = dose: 400.0 mg/kg/injection, schedule: Q01DX009 (ip), vehicle: Klucel (hydroxypropylcellulose) (HPC)
[10] = dose: 100.0 mg/kg/injection, schedule: Q01DX005 (ip), vehicle: saline
[11] = dose: 200.0 mg/kg/injection, schedule: Q01DX005 (ip), vehicle: saline
[12] = dose: 100.0 mg/kg/injection, schedule: Q04DX003 (ip), vehicle: saline
[13] = dose: 200.0 mg/kg/injection, schedule: Q04DX003 (ip), vehicle: saline
[14] = dose: 400.0 mg/kg/injection, schedule: Q04DX003 (ip), vehicle: saline
[15] = dose: 100.0 mg/kg/injection, schedule: Q01DX001 (ip), vehicle: Klucel (hydroxypropylcellulose) (HPC)
[16] = dose: 200.0 mg/kg/injection, schedule: Q01DX001 (ip), vehicle: Klucel (hydroxypropylcellulose) (HPC)
[17] = dose: 400.0 mg/kg/injection, schedule: Q01DX001 (ip), vehicle: Klucel (hydroxypropylcellulose) (HPC)

Measured: T/C

O=C(/C=C/c1ccccc1)NN1CCOCC1
inactive: dose: 75.0 mg/kg/injection, schedule: Q01DX009 (ip), vehicle: Klucel (hydroxypropylcellulose) (HPC) 92 % of control | dose: 150.0 mg/kg/injection, schedule: Q01DX009 (ip), vehicle: Klucel (hydroxypropylcellulose) (HPC) 108 % of control | dose: 300.0 mg/kg/injection, schedule: Q01DX009 (ip), vehicle: Klucel (hydroxypropylcellulose) (HPC) 115 % of control

CCCCCCCCCCCCCCC(=O)[O][Hg][c]1ccccc1
inactive: dose: 75.0 mg/kg/injection, schedule: Q01DX001 (ip), vehicle: steriod suspending solution 100 % of control

Cc1ccccc1N=Nc1c(O)[nH]c2ccccc12
inactive: dose: 100.0 mg/kg/injection, schedule: Q01DX001 (ip), vehicle: acetone 93 % of control | dose: 200.0 mg/kg/injection, schedule: Q01DX001 (ip), vehicle: acetone 95 % of control | dose: 400.0 mg/kg/injection, schedule: Q01DX001 (ip), vehicle: acetone 96 % of control

COc1cccc(/C=C2\CCNC2=O)c1OC
inactive: dose: 50.0 mg/kg/injection, schedule: Q01DX001 (ip), vehicle: carboxymethylcellulose (CMC) 96 % of control | dose: 100.0 mg/kg/injection, schedule: Q01DX001 (ip), vehicle: carboxymethylcellulose (CMC) 102 % of control | dose: 200.0 mg/kg/injection, schedule: Q01DX001 (ip), vehicle: carboxymethylcellulose (CMC) 100 % of control | dose: 400.0 mg/kg/injection, schedule: Q01DX001 (ip), vehicle: carboxymethylcellulose (CMC) 96 % of control

O=S(=O)(c1ccccc1)C(Br)Br
inactive: dose: 50.0 mg/kg/injection, schedule: Q04DX003 (ip), vehicle: saline with Tween-80 101 % of control | [1] 103 % of control | [2] 101 % of control

Cc1ccc(OCC(=O)Nc2ccc(Cl)cc2)c(C)c1
inactive: [3] 95 % of control | [4] 98 % of control | dose: 400.0 mg/kg/injection, schedule: Q01DX001 (ip), vehicle: other 98 % of control

CC(Cc1cc(C)nc(NC#N)n1)=Nc1ccccc1
inactive: dose: 100.0 mg/kg/injection, schedule: Q04DX002 (ip), vehicle: Klucel (hydroxypropylcellulose) (HPC) 100 % of control | dose: 200.0 mg/kg/injection, schedule: Q04DX002 (ip), vehicle: Klucel (hydroxypropylcellulose) (HPC) 92 % of control | dose: 400.0 mg/kg/injection, schedule: Q04DX002 (ip), vehicle: Klucel (hydroxypropylcellulose) (HPC) 100 % of control

NC(=O)Nc1cccc2c1-c1ccccc1C2=O
inactive: dose: 100.0 mg/kg/injection, schedule: Q04DX003 (ip), vehicle: acetone 88 % of control | dose: 400.0 mg/kg/injection, schedule: Q04DX003 (ip), vehicle: acetone 100 % of control

Nc1ccc(Br)cc1
inactive: [5] 100 % of control | [6] 95 % of control | dose: 400.0 mg/kg/injection, schedule: Q01DX009 (ip), vehicle: saline with Tween-80 99 % of control

Cc1cc(Cl)ccc1OC(=O)Nc1ccccc1F
inactive: [7] 110 % of control | [8] 98 % of control | [9] 121 % of control

C=C1OC(n2cnc3c(=N)n(O)cnc32)C2OC(C)(C)OC12 (stereo not drawn)
inactive: [10] 96 % of control | [11] 102 % of control

O=C(O)c1ccc(Br)o1
inactive: dose: 100.0 mg/kg/injection, schedule: Q04DX002 (ip), vehicle: saline with Tween-80 104 % of control | dose: 200.0 mg/kg/injection, schedule: Q04DX002 (ip), vehicle: saline with Tween-80 97 % of control | dose: 400.0 mg/kg/injection, schedule: Q04DX002 (ip), vehicle: saline with Tween-80 95 % of control

O=C(O)c1nccc2ccccc12
inactive: [12] 96 % of control | [13] 112 % of control | [14] 90 % of control

OCc1ccc(Cl)cc1Cl
inactive: dose: 50.0 mg/kg/injection, schedule: Q01DX009 (ip), vehicle: saline with Tween-80 107 % of control | [5] 103 % of control | [1] 100 % of control | [6] 103 % of control | [2] 105 % of control | dose: 400.0 mg/kg/injection, schedule: Q04DX003 (ip), vehicle: saline with Tween-80 102 % of control

Cc1cc(F)ccc1[As](=O)(O)O
inactive: dose: 25.0 mg/kg/injection, schedule: Q04DX003 (ip), vehicle: saline with Tween-80 101 % of control

Cc1ccc(S(=O)(=O)OCC2C3C=CC(c4ccccc43)C2COS(=O)(=O)c2ccc(C)cc2)cc1 (stereo not drawn)
inactive: dose: 75.0 mg/kg/injection, schedule: Q01DX009 (ip), vehicle: saline with Tween-80 96 % of control | dose: 150.0 mg/kg/injection, schedule: Q01DX009 (ip), vehicle: saline with Tween-80 91 % of control | dose: 300.0 mg/kg/injection, schedule: Q01DX009 (ip), vehicle: saline with Tween-80 90 % of control

CCOC(=O)c1cc(Cl)c(N)c(Cl)c1
inactive: [7] 93 % of control | [8] 90 % of control | [9] 100 % of control

O=[N+]([O-])c1ccc(Nc2ccncc2)cc1
inactive: dose: 100.0 mg/kg/injection, schedule: Q01DX009 (ip), vehicle: saline 103 % of control | [12] 106 % of control | dose: 200.0 mg/kg/injection, schedule: Q01DX009 (ip), vehicle: saline 106 % of control | [13] 103 % of control | dose: 400.0 mg/kg/injection, schedule: Q01DX009 (ip), vehicle: saline 104 % of control | [14] 114 % of control

Nc1ncnc2c1ncn2C1OC(COP(=O)(O)O)C(O)C1O (stereo not drawn)
inactive: dose: 9.4 mg/kg/injection, schedule: Q03HX016 (ip), vehicle: water 108 % of control | dose: 9.4 mg/kg/injection, schedule: Q03HX024 (ip), vehicle: water 104 % of control | dose: 18.8 mg/kg/injection, schedule: Q03HX016 (ip), vehicle: water 108 % of control | dose: 18.8 mg/kg/injection, schedule: Q03HX024 (ip), vehicle: water 106 % of control | dose: 37.5 mg/kg/injection, schedule: Q03HX016 (ip), vehicle: water 108 % of control | dose: 37.5 mg/kg/injection, schedule: Q03HX024 (ip), vehicle: water 110 % of control | dose: 75.0 mg/kg/injection, schedule: Q03HX016 (ip), vehicle: water 116 % of control | dose: 75.0 mg/kg/injection, schedule: Q03HX024 (ip), vehicle: water 115 % of control | [10] 98 % of control | [11] 98 % of control

Cc1ccc(NC(=S)NC(=O)COc2ccccc2)cc1C
inactive: dose: 50.0 mg/kg/injection, schedule: Q01DX001 (ip), vehicle: other 92 % of control | dose: 50.0 mg/kg/injection, schedule: Q01DX009 (ip), vehicle: other 96 % of control and 108 % of control | dose: 50.0 mg/kg/injection, schedule: Q04DX002 (ip), vehicle: other 101 % of control and 116 % of control | dose: 50.0 mg/kg/injection, schedule: Q04DX003 (ip), vehicle: other 95 % of control | [3] 97 % of control | dose: 100.0 mg/kg/injection, schedule: Q01DX009 (ip), vehicle: other 100 % of control and 86 % of control | dose: 100.0 mg/kg/injection, schedule: Q04DX003 (ip), vehicle: other 92 % of control | [4] 101 % of control | dose: 200.0 mg/kg/injection, schedule: Q01DX009 (ip), vehicle: other 96 % of control and 90 % of control

CN(C)C(=S)Oc1ccc(C(=O)O)cc1
inactive: [15] 86 % of control | [16] 90 % of control | [17] 88 % of control

O=C(Nc1cc[n+](Cc2ccc(S(=O)(=O)F)cc2)cc1)c1ccccc1
inactive: [1] 96 % of control | [2] 98 % of control

COC1OC2COc3ccccc3OC2C(NC(N)=S)C1OC (stereo not drawn)
inactive: dose: 100.0 mg/kg/injection, schedule: Q01DX009 (ip), vehicle: gum acacia 107 % of control | dose: 200.0 mg/kg/injection, schedule: Q01DX009 (ip), vehicle: gum acacia 102 % of control | dose: 400.0 mg/kg/injection, schedule: Q01DX009 (ip), vehicle: gum acacia 93 % of control

CO[N+](=O)c1cc(C(C)(C)C)c([O-])c(C(C)(C)C)c1
inactive: [15] 88 % of control | [16] 88 % of control | [17] 92 % of control

CN(C)c1ccc(-c2cc(C(=O)O)c3cc(I)ccc3n2)c(Cl)c1
inactive: dose: 75.0 mg/kg/injection, schedule: Q01DX001 (ip), vehicle: saline 88 % of control | dose: 150.0 mg/kg/injection, schedule: Q01DX001 (ip), vehicle: saline 86 % of control | dose: 300.0 mg/kg/injection, schedule: Q01DX001 (ip), vehicle: saline 91 % of control
